Source: article PMC9276671, “A first-in-human Phase I dose-escalation trial of the novel therapeutic peptide, ALM201, demonstrates a favourable safety profile in unselected patients with ovarian cancer and other advanced solid tumours” (British Journal of Cancer, 2022)
pIC50: −log10 of the molar value. Where two headings read alike, the source gives them in different places. No end group written: not given here.

Experiments:
heparinised human blood = details: alone or with Staphylococcus Enterotoxin B, 10^-8 to 10^-6 M, ref Investigator brochure (IB); cited from earlier work
[1] = test system: ovarian patient-derived xenograft models; details: cited from earlier work
[2] = ref Investigator brochure (IB), cited from earlier work
Description: page 40: Almac Discovery Confidential (i) a […] dose ranging study in rats, dose range 5-50 mg/kg/day; (ii) a non-GLP dose ranging study in dogs, dose range 15-50 mg/kg/day; (iii) a GLP 28-day study in rats, dose range 5-50 mg/kg/day; (iv) a GLP 28-day study in dogs, dose range 5-50 mg/kg/day; (v) a non-GLP wound healing study in rats, dose range 5-50 mg/kg/day. In the rat dose range finding study, administration of doses of up to 50 mg/kg/day for 14 days were assessed. ALM201 was well tolerated at all doses and the No Observable Adverse Effect Level (NOAEL) was considered to be 50 mg/kg/d ...

[3] = test system: DU145 and HT29 xenografts; details: 3.0 mg/kg/day and 0.3 mg/kg/day, 14-day period, BALB-c SCID mouse, ref Investigator brochure (IB); cited from earlier work
Description: In vivo studies using a BALB-c SCID mouse xenograft model with DU145 and HT29 cell-lines, where the small tumours can be directly examined in situ using confocal and standard microscopy have shown that administration of ALM201 inhibits a range of markers of new blood vessel formation. Tumours were typically 1-2 mm at baseline and assessments taken over a 14-day period. Dose levels of 3.0 mg/kg/d ...

[4] = Mouse, 3mg/kg SC, male animals; ref Investigator brochure (IB); cited from earlier work
proliferation = details: protocol Table 3; ref Investigator brochure (IB); cited from earlier work
From the text: (§1) ALM201 also had no effect on cytok ...

HMEC-1 = details: protocol Table 3; ref Investigator brochure (IB); read-out: Tube formation IC50; cited from earlier work
From the text: as §1

[5] = test system: invasion stimulated by VEGF, EGF, FGF, PFGF and FCS; details: 10^-9 M (exponent printed displaced), ref Investigator brochure (IB); cited from earlier work
From the text: as §1

cell viability = details: protocol Table 2; ref Investigator brochure (IB); cited from earlier work
From the text: as §1

cell cycle = details: protocol Table 2 (IC50 (nM)); ref Investigator brochure (IB); cited from earlier work
From the text: as §1

rat aorta = details: ex vivo rat aorta in Matrigel, 7-day period, depending on the parameter assessed; ref Investigator brochure (IB); read-out: IC50 for tubule out-growth parameters; cited from earlier work
From the text: as §1

HMEC-1 cells = details: same concentration range, range of growth factors, ref Investigator brochure (IB); cited from earlier work
From the text: as §1

tubulin = test system: tubulin; set-up: method as in Investigator brochure (IB); details: ref Investigator brochure (IB), read-out: Tubulin polymerisation IC50, cited from earlier work
advanced solid tumours = test: Tumour response by RECIST 1.1; format: in vivo, human
Description: Tumour assessment by imaging (CT scan or MRI scan as appropriate for tumour type) was assessed in all patients at initial screening and after every two cycles of treatment (i.e., every 6 weeks) during cycles 1–8 (i.e., first 24 weeks), and then after every four cycles of treatment (i.e., every 12 weeks) from cycle nine onwards. Scans were reported according to RECIST version 1.1.

[6] = Safety and tolerability: adverse events and DLT (CTCAE v4.03); format: in vivo
Description: Eligible participants were enrolled in sequential cohorts treated with a subcutaneous (SC) injection of ALM201, with close monitoring for safety and dose-limiting toxicities (DLTs). Dose levels were not weight-adjusted, and the starting dose for the study was 10 mg ALM201 given on days 1–5, 8–12 and 15–19 every 21 days, i.e., weekday dosing to be given continuously. […] Every new dose cohort was evaluated for the occurrence of a DLT during treatment cycle 1.
This study commenced with an accelerated dose-escalation design, then switched to a conventional algorithm (3 + 3 patients per dose level) to identify the maximum tolerated dose (MTD), escalating on observation of 0/3 or 1/6 DLTs, and de-escalating if two or more patients with DLTs were encountered.
Safety assessments included physical examination, vital signs, biochemistry and haematology laboratory screens, plus immunogenicity testing. Safety evaluations were conducted weekly during each treatment cycle, with DLT assessed during cycle one only. All events and suspected DLTs were graded according to the Common Toxicity Criteria for Adverse Events (CTCAE), version 4.03.

IRQQPRDPPTETLELEVSPDPAS [ALM201]
Effect on cytokine release and T-cell proliferation (heparinised human blood): no effect
Tumour growth inhibition [1]: > 60%
NOAEL ([2]; beagle dog dose range finding, 15 and 50 mg/kg/day for 14 days): 50 mg/kg/day
NOAEL ([2]; dog GLP 28 days plus recovery, 5, 15 and 50 mg/kg/day): 50 mg/kg/day
NOAEL ([2]; rat GLP 28 days plus recovery, 5, 15 and 50 mg/kg/day): 50 mg/kg/day
NOAEL ([2]; rat dose range finding study, up to 50 mg/kg/day for 14 days): 50 mg/kg/day
Effect on wound closure or tensile strength ([2]; rat, 5 and 50 mg/kg/day for up to 18 days, versus vehicle controls): No effect
Average vessel diameter, average segment length and vessel branch number [3]: significant decreases
AUC24 (figure is for AUC0-∞) [4]: 2166 ng·h/mL
Cmax [4]: 3477 ng/mL
Half-life [4]: 12 min
Tmax [4]: 10 min
Proliferation IC50 (proliferation): No effect
pIC50 (HMEC-1): 10.09
Invasion [5]: inhibit invasion
Cell viability IC50 (cell viability): No effect
Cell cycle arrest (cell cycle): No effect
pIC50 (rat aorta): 10.70 to 11.30
Effect on cell proliferation or cell cycle (HMEC-1 cells): no effect
pIC50 (tubulin; protocol Table 2): 10.00
pIC50 (tubulin; protocol Table 3): 9.96
Stable disease / disease control rate (advanced solid tumours; 7/20 patients, stable disease for up to four cycles): 35%
Disease progression (advanced solid tumours; 12 of 20 patients): 60%
Partial or complete responses (advanced solid tumours; all patients): No partial or complete responses
Patients with SD until the end of cycle 4 (advanced solid tumours; in vivo): Three
Maximum tolerated dose (MTD) ([6]; SC weekday doses of up to 300 mg): not reached
CTCAE grade 4-related toxicities ([6]; all dose levels): no CTCAE grade 4-related toxicities
Thrombotic events, number of patients ([6]; cohort 8 (100 mg) and cohort 1 (10 mg)): two
Dose-limiting toxicities (DLTs) ([6]; cycle 1, 10-300 mg SC): No DLTs
Abdominal wall bruising, causality ([6]; in vivo): Definite
Anorexia, causality ([6]; in vivo): Possible
Arthralgia, causality ([6]; in vivo): Possible
Blurred vision, causality ([6]; in vivo): Probable
Depression, causality ([6]; in vivo): Possible
Diarrhoea, causality ([6]; in vivo): Possible
Fatigue, causality ([6]; in vivo): Possible
Headache, causality ([6]; in vivo): Possible
Hot flushes, causality ([6]; in vivo): Possible
Injection-site erythema, causality ([6]; in vivo): Definite
Injection-site immune reaction, causality ([6]; in vivo): Definite
Injection-site pain, causality ([6]; in vivo): Definite
Nausea, causality ([6]; in vivo): Possible
Oral candidiasis, causality ([6]; in vivo): Possible
Pedal oedema, causality ([6]; in vivo): Possible
Pruritus, causality ([6]; in vivo): Definite
Pulmonary embolus, causality ([6]; in vivo): Possible
Pyrexia, causality ([6]; in vivo): Possible
Urinary tract infection, causality ([6]; in vivo): Possible
Venous thrombus, causality ([6]; in vivo): Possible
Vomiting, causality ([6]; in vivo): Possible
